In general, IC50 refers to the point on the concentration scale where inhibition reaches its midpoint. Read a low IC50 as inhibition by little substance. By inhibition is commonly meant the change of the read-out against control, counted positive when it falls. By EC50 is commonly meant the concentration that produces a half-maximal response. The low end stands for higher potency in that assay, the high end for lower potency in that assay.

The source made the active and inactive calls. No cut-off for these calls is given here. Bounds are passed on as bounds.

Here are results for 16 molecules from ChEMBL document CHEMBL3608277 (ACS Med Chem Lett, 2015).

A short description of data set [1]: Toxicity against human HeLa67 cells. The class given is cell-based.
In data set [2] the test system is Human immunodeficiency virus 1. The experiment in a line: Antiviral activity against HIV1 BaL infected in CD4/CCR5 expressing human MAGI cells incubated for 48 hrs by beta-galactosidase reporter gene assay. The data set is classed as functional, organism-based. The settings on record: Human immunodeficiency virus 1, BaL. On the technique in general: Reporter assays use an easily measured gene product as a stand-in for the process of interest.

Data set [3] relates to Human immunodeficiency virus 1. As to the kind of experiment: Antiviral activity against HIV1 3B infected in CD4/CXCR4 expressing human MAGI cells incubated for 48 hrs by beta-galactosidase reporter gene assay. The data set is classed as functional, organism-based. The following applies: Human immunodeficiency virus 1, 3B.
For data set [4], the target named is T1, C-C chemokine receptor type 5 (Homo sapiens, UniProt P51681). The experiment in a line: Displacement of [125I]-MIP-1beta form CCR5 (unknown origin). (Displacement assays read how much labelled ligand stays bound in the presence of the test substance.)
Target sequence in this assay (P51681 whole entry): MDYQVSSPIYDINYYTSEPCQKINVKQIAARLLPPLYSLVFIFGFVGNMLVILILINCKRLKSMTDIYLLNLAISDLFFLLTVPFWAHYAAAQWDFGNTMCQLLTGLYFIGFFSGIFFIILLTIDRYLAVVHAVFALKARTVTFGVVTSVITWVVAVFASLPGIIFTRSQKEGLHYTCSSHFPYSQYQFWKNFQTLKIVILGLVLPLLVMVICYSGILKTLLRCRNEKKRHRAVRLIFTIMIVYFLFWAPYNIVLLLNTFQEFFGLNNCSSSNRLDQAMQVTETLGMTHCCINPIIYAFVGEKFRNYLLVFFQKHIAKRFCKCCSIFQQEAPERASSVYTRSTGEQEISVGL
The target in data set [5] is C-X-C chemokine receptor type 4 (Homo sapiens) (UniProt P61073). As to the kind of experiment: Inhibition of CXCR4 in human Jurkat cells assessed as reduction in HIV-Nef-M1-induced mitochondrial membrane depolarization at 0.01 to 100 uM by JC1 dye based fluorescence depolarization assay. The class given is cell-based.
Sequence of C-X-C chemokine receptor type 4 (Homo sapiens) (P61073 whole entry): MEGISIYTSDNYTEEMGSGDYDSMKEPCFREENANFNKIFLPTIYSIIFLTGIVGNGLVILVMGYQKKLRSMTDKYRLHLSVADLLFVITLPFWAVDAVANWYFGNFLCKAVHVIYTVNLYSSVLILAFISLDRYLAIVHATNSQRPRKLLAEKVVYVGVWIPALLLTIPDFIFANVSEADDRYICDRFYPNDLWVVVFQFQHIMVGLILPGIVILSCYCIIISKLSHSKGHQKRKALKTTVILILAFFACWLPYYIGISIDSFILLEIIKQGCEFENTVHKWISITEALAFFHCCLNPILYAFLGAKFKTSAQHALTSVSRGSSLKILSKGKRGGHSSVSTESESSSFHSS
Data set [6] deals with Human immunodeficiency virus. As to the kind of experiment: Resistance index, ratio of EC50 for […] HIV containing reverse transcriptase K103N/Y181C mutation to EC50 for wild type HIV. The data set is classed as functional.
In data set [7] the test system is Human immunodeficiency virus 1. The experiment in a line: Antiviral activity against HIV1 3B infected in CD4/CXCR4 expressing human PBMC cells by reverse transcriptase activity and/or p24 antigen content detection based assay. The data set is classed as functional, organism-based. The following applies: Human immunodeficiency virus 1, 3B.
Data set [8] concerns Human immunodeficiency virus 2. As to the kind of experiment: Antiviral activity against HIV2 CDC310319 infected in human PBMC cells. The class given is functional, organism-based. The settings on record: Human immunodeficiency virus 2, CDC310319, PBMC.
A short description of data set [9]: Toxicity against HEK293 cells derived ACTOne-X4 cells. The following applies: human. The data set is classed as cell-based.
Data set [10] has as its target T1, C-C chemokine receptor type 5. The experiment in a line: Displacement of [125I]-MIP-1beta form CCR5 (unknown origin) at 1 mM.
Target sequence in this assay (P51681 whole entry, looked up): as the sequence (P51681 whole entry) above
Data set [11] in a line: Toxicity against human MAGI cells incubated for 48 hrs by MTS assay. The data set is classed as cell-based. The following applies: read-out: TC50.
Data set [12] can be described thus: Inhibition of HIV pNL4-3 heterodimeric reverse transcriptase p66/p51 incubated at 37 degC for 1 hr by scintillation counting method. The arrangement: species or system Human immunodeficiency virus.
Data set [13] has as its target T1, C-C chemokine receptor type 5. As to the kind of experiment: Displacement of [125I]-MIP-1beta form CCR5 (unknown origin) at 100 uM.
Target sequence in this assay (P51681 whole entry, looked up): as the sequence (P51681 whole entry) above
Data set [14] has as its target C-X-C chemokine receptor type 4 (Homo sapiens) (UniProt P61073). The experiment in a line: Displacement of [125I]-SDF1 form CXCR4 (unknown origin) at 1 mM.
Data set [15] in a line: Toxicity against human PBMC by MTS assay. The data set is classed as cell-based. The following applies: read-out: TC50 (the source's name). (Tetrazolium assays rely on reduction of a dye to a coloured formazan, in cell work by metabolically active cells.)
Data set [16] has as its system Human immunodeficiency virus 1. As to the kind of experiment: Antiviral activity against HIV1 BaL infected in CD4/CCR5 expressing human PBMC cells by reverse transcriptase activity and/or p24 antigen content detection based assay. The following applies: Human immunodeficiency virus 1, BaL. The class given is functional, organism-based.
In data set [17] the test system is Human immunodeficiency virus. The experiment in a line: Antiviral activity against NNRTI-resistant HIV containing reverse transcriptase K103N/Y181C mutation. The class given is functional, organism-based. The settings on record: Human immunodeficiency virus 1.
For data set [18], the system named is Human immunodeficiency virus. As to the kind of experiment: Antiviral activity against wild type HIV. The class given is functional, organism-based. The settings on record: Human immunodeficiency virus 1.

Turning to `Cc1ccc(-c2ccc3c(c2)C=C(C(=O)Nc2ccc(C[N+](C)(C)C4CCOCC4)cc2)CCC3)cc1.[Cl-]`, the Activity entry in data set [1] is “Toxic”.

In the case of `CCc1nccc(CN2CCC(c3[nH]ncc3Cc3ccccc3)CC2)n1`, the 50% inhibitory concentration (IC50) in data set [2] is 66 µM; in data set [3], 57 µM.

`COc1ncc(CN2CCC(c3[nH]ncc3Cc3ccccc3)CC2)cn1`: the 50% inhibitory concentration (IC50) in data set [2] is 72 µM; in [3], above 200 µM; in data set [4], 70 µM.

For the molecule `CCc1cc(CN2CCC(c3[nH]ncc3Cc3ccccc3)CC2)[nH]n1`, the 50% inhibitory concentration (IC50) came out at 60 µM in data set [2] and 68 µM in data set [3].

On to `c1ccc(-c2cn[nH]c2C2CCN(Cc3cccnc3)CC2)cc1`, for which the IC50 in data set [2] came out at 64 µM; in data set [3], 44 µM.

`c1ccc(Cc2cn[nH]c2C2CCN(Cc3ccccn3)CC2)cc1`: the results for the IC50 in data set [2] and in data set [3] were 17 µM and 25 µM, respectively.

Turning to `c1ccc(Cc2cn[nH]c2C2CCN(Cc3cccnc3)CC2)cc1`, the IC50 in data set [2] is 16 µM; in data set [3] it was 5.8 µM.

As for `Cc1nnc(C(C)C)n1[C@H]1C[C@H]2CC[C@@H](C1)N2CC[C@H](NC(=O)C1CCC(F)(F)CC1)c1ccccc1`, the inhibition entry in data set [5] was “inactive”.

With `c1cc(CN2CCCNCCNCCCNCC2)ccc1CN1CCCNCCNCCCNCC1`, in data set [5], the inhibition entry is “Active”.

Take `Nc1ncc(N2CCC(c3[nH]ncc3Cc3ccccc3)CC2)cn1`: the IC50 worked out at 95 µM in data set [2] and 105 µM in [3].

Take `Nc1cc(CN2CCC(c3[nH]ncc3Cc3ccccc3)CC2)ncn1`: the half-inhibitory concentration (IC50) was found to be 17 µM in data set [2] and 13 µM in data set [3].

As to `CC(C)c1nccc(CN2CCC(c3[nH]ncc3Cc3ccccc3)CC2)n1`, the results for the half-maximal inhibitory concentration (IC50) in [2] and in data set [3] were 13 µM and 6.4 µM, respectively.

For the molecule `O=C1Nc2ccc(Cl)cc2[C@@](C#CC2CC2)(C(F)(F)F)O1` [EFAVIRENZ], the “Ratio EC50” value in data set [6] was 70.

As to `c1ccc(Cc2cn[nH]c2C2CCN(Cc3ccncc3)CC2)cc1`, the half-maximal inhibitory concentration (IC50) in data set [2] was determined as 3.8 µM; in [3], 0.8 µM; in [7] it was 2.3 µM; in data set [8] it was 31 µM; in data set [12] it was 9 µM; in data set [16], 2.3 µM. The CC50 in [9] was above 200 µM; in data set [15] it was above 100 µM. Besides, the figures for the inhibition in [10], in data set [13] and in data set [14] were 88%, 38% and 0%, respectively. Besides, the CC50 at 48 h in data set [11] is above 300 µM. For the same molecule, the concentration for a half-maximal effect (EC50) in data set [17] is 19 µM; in data set [18], 0.9 µM.

As to `Cc1cn([C@H]2C[C@H](N=[N+]=[N-])[C@@H](CO)O2)c(=O)[nH]c1=O`, the inhibition entry in data set [5] is “inactive”.

`Nc1ccnc(CN2CCC(c3[nH]ncc3Cc3ccccc3)CC2)n1`: the figures for the IC50 in data set [2] and in data set [3] were 83 µM and 81 µM, respectively.
